Results reported in PMC11973094, “Formononetin and mizoribine inhibit Porcine Reproductive and Respiratory Syndrome Virus replication in vitro” (Frontiers in Nutrition, 2025).

Experiments:
[1] = tested on: Marc-145 cells; assay: Cytotoxicity (CC50) by CCK-8 assay in Marc-145 cells; type: cell-based; conditions: for Non-cytotoxic concentrations: Marc-145 and PAM cells, treatment durations shorter than 48 h
Experimental: Cells were treated in a 96-well plate using DMEM supplemented with 8% FBS. After achieving a monolayer formation, the cells were treated with multiple concentrations of the test compound, which were diluted in DMEM containing 2% FBS and added to six replicate wells. As a control, a blank solution consisting of 0.5% DMSO in DMEM was employed. […] Subsequently, the half-maximal cytotoxic concentrations (CC50) was measured following the protocol described in section 2.2 of our previous work ([18]). […] EC50 was determined by assessing PRRSV genomic expression levels after three freeze–thaw cycles, and results were plotted using GraphPad Prism 8.
(§1) Figure 2 Evaluating the cytotoxicity of FMN and MZR on Marc-145 and PAM Cells. (A,B) CC50 values for FMN in Marc-145 cells at 48 and 72 h, determined via the CCK-8 assay. (C,D) CC50 of FMN in PAM cells assessed at 48 and 72 h. (E,F) CC50 values for MZR in Marc-145 cells at 48 and 72 h. (G,H) CC50 for MZR in PAM cells, also measured at 48 and 72 h. (I) The antiviral activity of FMN against the PRRSV VR-2332 strain, evaluated via IFA. (J) Antiviral effectiveness of MZR against the VR-2332 strain, assessed using IFA. Control samples were treated with a matching volume of 0.4% DMSO in DMEM. Black dots within the figure symbolize individual data points from each independent experiment. IFA images are from three experimental replicates.

[2] = tested on: PAM cells; assay: Cytotoxicity (CC50) by CCK-8 assay in PAM cells; type: cell-based, Porcine
Experimental: (§2) Cells were treated in a 96-well plate using DMEM supplemented with 8% FBS. After achieving a monolayer formation, the cells were treated with multiple concentrations of the test compound, which were diluted in DMEM containing 2% FBS and added to six replicate wells. As a control, a blank solution consisting of 0.5% DMSO in DMEM was employed. The cells treated with the compound were incubated at 37°C in a humidified atmosphere with 5% CO2 for 48 or 72 h. Subsequently, the half-maximal cytotoxic concentrations (CC50) was measured following the protocol described in section 2.2 of our previous work ([18]). […] EC50 was determined by assessing PRRSV genomic expression levels after three freeze–thaw cycles, and results were plotted using GraphPad Prism 8.
as §1

[3] = tested on: PRRSV VR-2332 strain; assay: Antiviral EC50 against PRRSV VR-2332 in PAM cells (PRRSV genomic expression); type: cell-based; conditions: Porcine reproductive and respiratory syndrome virus
Experimental: (§3) Viral solutions were diluted in a 10-fold gradient. Aliquots of solutions containing varying concentrations of the virus (100 μL each) and DMEM with 2% FBS (100 μL) were added to each well. Add 100 μL of 2% FBS DMEM (without PRRSV) to the control wells. The plates were incubated for 4 days at 37°C in a humidified atmosphere with 5% CO2, after which the virus TCID50 values were calculated using the Reed and Muench formula. To evaluate PRRSV gene expression, we employed the relative quantitative Reverse Transcription Quantitative Polymerase Chain Reaction (qRT-PCR) technique. The resultant data were processed using Design & Analysis Software (Thermo, version 2.6.0) and normalized based on the 2^−ΔΔCt method. For the determination of viral copy numbers, absolute quantitative qRT-PCR was utilized, with sample normalization achieved by quantifying plasmid concentrations prior to the detection process. The specific methods are as described in section 2.4 of our previous paper ([18]). The upstream and downstream primers were: PRRSV 5’-[…]’ and 5’-[…]-3′; Marc-145-GAPDH 5’-[…]-3′ and 5’-[…]-3′; PAM-GAPDH 5’-TCTGGCAAAGTGGACATT-3′ and 5’-[…]-3′.
(§4) Cells were treated in a 96-well plate using DMEM supplemented with 8% FBS. After achieving a monolayer formation, the cells were treated with multiple concentrations of the test compound, which were diluted in DMEM containing 2% FBS and added to six replicate wells. As a control, a blank solution consisting of 0.5% DMSO in DMEM was employed. The cells treated with the compound were incubated at 37°C in a humidified atmosphere with 5% CO2 for 48 or 72 h. Subsequently, the half-maximal cytotoxic concentrations (CC50) was measured following the protocol described in section 2.2 of our previous work ([18]). For the determination of the half-maximal effective concentration (EC50), each concentration was tested in triplicate wells, using 0.4% DMSO as a blank control. EC50 was determined by assessing PRRSV genomic expression levels after three freeze–thaw cycles, and results were plotted using GraphPad Prism 8.

[4] = tested on: PRRSV VR-2332 strain; assay: Antiviral EC50 against PRRSV VR-2332 in Marc-145 cells (PRRSV genomic expression); type: cell-based; conditions: Porcine reproductive and respiratory syndrome virus, MARC145, VR-2332 strain
Experimental: as §3, §4

[5] = tested on: PRRSV VR-2332 strain; assay: Viral titer (TCID50) and viral genome (qRT-PCR) of VR-2332 after 36-h incubation with the compounds; type: cell-based, Porcine Reproductive and Respiratory Syndrome Virus; conditions: for Correlation of concentration with relative expression of the PRRSV genome / Correlation of concentration with viral titer: 36-h incubation, linear fit slope m negative; for Concentrations effectively suppressing viral replication: dose-dependent inhibition
Experimental: as §3
Figure 3 Assessing the antiviral potency of FMN and MZR on PRRSV. This figure delineates the evaluation of FMN and MZR at varying concentrations for their antiviral effects on the VR-2332 strain. (A,C) Display the EC50 of FMN in PAM and Marc-145 cells, respectively. (B,D) Illustrate the EC50 of MZR in PAM and Marc-145 cells. (E,F) Show alterations in the viral titers of the VR-2332 strain post 36-h incubation with distinct concentrations of FMN or MZR. (G,H) Represent the viral genome changes under similar conditions. Each point in the figure corresponds to raw data from individual experiments. Linear fit slopes are marked in red. Error bars indicate the mean ± SD. TEXT PRINTED IN THE PICTURE: (A) FMN: PAM: EC50: 8.716; PAM: EC90: 223.542 | (B) MZR: PAM: EC50: 8.274; PAM: EC90: 19.945 | (C) FMN: Marc-145: EC50: 16.863; Marc-145: EC90: 104.819 | (D) MZR: Marc-145: EC50: 22.335; Marc-145: EC90: 63.856

[6] = tested on: PRRSV VR-2332 strain; assay: Indirect immunofluorescence assay (IFA) of VR-2332 in PAM cells; type: cell-based, Porcine Reproductive and Respiratory Syndrome Virus; conditions: within the safety range
Experimental: The following antibodies were used for IFA: Mouse Anti-SR30 (Rtilab, SR30-A) and Goat Anti-Mouse FITC (Bioss, bs-0368G-FITC). After virus inoculation, cells were fixed with 80% cold acetone according to previous experimental conditions for IFA ([18]). A Leica DMI6000 microscope was used for observation.
as §1

[7] = tested on: PRRSV GSWW-18 strain; assay: Viral titer and gene expression of GSWW-18 strain in PAM cells; type: cell-based, Porcine Reproductive and Respiratory Syndrome Virus; conditions: 36 h
Experimental: as §3
(§5) Figure 4 Inhibitory effects of FMN and MZR on GSWW-18 and GSWW-15 Strains. (A,C) Changes in PRRSV viral titers in PAM cells incubated with 20 μM of FMN or MZR for 36 h with the GSWW-18 strain. (B,D) Changes in PRRSV viral genome in PAM cells after 36 h of incubation with 20 μM of FMN or MZR with the GSWW-15 strain. The black dots in the figure represent the raw data from each independent experiment. p-values were calculated using one-way ANOVA with Dunnett’s multiple-comparison test. The p-value less than 0.03 was considered statistically significant. Error bars represent the mean ± SD.

[8] = tested on: PRRSV GSWW-15 strain; assay: Viral titer and gene expression of GSWW-15 strain in PAM cells; type: cell-based, Porcine Reproductive and Respiratory Syndrome Virus; conditions: 36 h
Experimental: as §3, §5

[9] = tested on: PRRSV VR-2332 strain; assay: Time-of-addition assay, Marc-145 cells infected with VR-2332 (MOI = 1); type: cell-based, Porcine Reproductive and Respiratory Syndrome Virus
Excerpt: The assay commenced with seeding cells into a 96-well plate, followed by their cultivation in DMEM supplemented with 8% FBS. Upon achieving a monolayer, the cells were infected with the VR-2332 strain of PRRSV at a multiplicity of infection (MOI) of 1. One hour after infection, the viral inoculum was discarded, and the cells were cleansed with ice-cold PBS. DMSO or various concentrations of FMN or MZR were then introduced to the culture at different time intervals, as depicted in Figure 1A. Thirty-six hours post-infection, the expression levels of PRRSV RNA were quantified using previously described methods.
Figure 1 Time-of-addition experiment with FMN or MZR. (A) This schematic diagram illustrates the classical experimental protocol for administering drugs at different time points. The experiment began with Marc-145 cells uniformly infected with VR-2332 (MOI = 1) at 0 h, followed by adding varying concentrations of FMN or MZR at specific times. (B,C) FMN or MZR was introduced at −4, 0, 2, 4, 8, and 16 h to examine their impact on various stages of PRRSV replication. All samples were collected for analysis 36 h post-infection. The colors of the bars in the figure correspond to the time points as detailed in (A). Each symbol represents an independent biological replicate. The p-values are indicated, with ‘ns’ denoting p > 0.1234. These values were calculated using one-way ANOVA with Dunnett’s multiple-comparison test, and a p-value less than 0.0332 was considered statistically significant.

[10] = Cytotoxicity (CC50) by CCK-8 assay in PAM cells; type: cell-based, Porcine; conditions: pig
Experimental: as §2, §1

[11] = added 16 h after infection, P > 0.1234
[12] = added in the initial stages post-infection, collected 36 h post-infection
[13] = lower concentrations added 8 h post-infection, P > 0.1234

With `NC(=O)c1ncn([C@@H]2O[C@H](CO)[C@@H](O)[C@H]2O)c1O` [MZR, 1-[(2R,3R,4S,5R)-3,4-dihydroxy-5-(hydroxymethyl)oxolan-2-yl]-5-hydroxy-1H-imidazole-4-carboxamide, reference compound] the Non-cytotoxic concentrations [1] was “below 100 μM”, the Cytotoxicity ([1]; Marc-145 cells, various concentrations, 48 and 72 h) was “minimal cytotoxicity” and the Cytotoxicity ([2]; treatment up to 72 h) was “negligible cytotoxicity”. The EC50 [3] was ~8.27 µM, the EC50 ([3]; Figure 3, unit inferred) was 8.27 µM and the EC90 ([3]; Figure 3, unit inferred) was 19.9 µM. The EC50 [4] was ~22.3 µM, the EC50 ([4]; Figure 3, unit inferred) was 22.3 µM and the EC90 ([4]; Figure 3, unit inferred) was 63.9 µM. For the same compound, the “Correlation of concentration with relative expression of the PRRSV genome” value [5] was “negatively correlated”, the “Correlation of concentration with viral titer” value [5] was “negatively correlated” and the “Concentrations effectively suppressing viral replication” value [5] was “above 20 μM”. The “Antiviral activity by IFA” value [6] was “antiviral efficacy”, the Gene expression levels [7] was “dose-dependent inverse relationship” and the Viral titers [7] was “dose-dependent reduction”. The Gene expression levels [8] was “dose-dependent inverse relationship”, the Viral titers [8] was “dose-dependent reduction” and the “Effect on PRRSV replication (PRRSV RNA)” value [9, 11] was “entirely ineffective”. The “Effect on PRRSV replication (PRRSV RNA)” value [9, 12] was “pronounced antiviral activity” and the “Effect on PRRSV replication (PRRSV RNA)” value [9, 13] was “did not significantly impede PRRSV replication”.
In the case of `COc1ccc(-c2coc3cc(O)ccc3c2=O)cc1` [FMN, 7-hydroxy-3-(4-methoxyphenyl)-4H-chromen-4-one], the Non-cytotoxic concentrations [1] is reported as “below 100 μM”, the CC50 at 72 h ([10]; 72 h, printed in the picture of Figure 2D, no unit) is reported as 52 µM and the CC50 at 72 h ([10]; 72 h exposure) is reported as 52 µM. For the same compound, the Cytotoxicity ([2]; 48 h) was “non-toxic”, the EC50 [3] was ~8.72 µM and the EC50 ([3]; Figure 3, unit inferred) was 8.72 µM. It also gave an EC90 ([3]; Figure 3, unit inferred) of 224 µM, an EC50 [4] of ~16.9 µM and an EC50 ([4]; Figure 3, unit inferred) of 16.9 µM. For the same compound, the EC90 ([4]; Figure 3, unit inferred) was 105 µM, the “Correlation of concentration with relative expression of the PRRSV genome” value [5] was “negatively correlated” and the “Correlation of concentration with viral titer” value [5] was “negatively correlated”. For the same compound, the “Concentrations effectively suppressing viral replication” value [5] was “above 20 μM”, the “Antiviral activity by IFA” value [6] was “antiviral efficacy” and the Gene expression levels [7] was “dose-dependent inverse relationship”. The Viral titers [7] was “dose-dependent reduction”, the Gene expression levels [8] was “dose-dependent inverse relationship” and the Viral titers [8] was “dose-dependent reduction”. The “Effect on PRRSV replication (PRRSV RNA)” value [9, 11] was “entirely ineffective”, the “Effect on PRRSV replication (PRRSV RNA)” value [9, 12] was “pronounced antiviral activity” and the “Effect on PRRSV replication (PRRSV RNA)” value [9, 13] was “did not significantly impede PRRSV replication”.
